From patent publication US11254663B2 (BRISTOL-MYERS SQUIBB COMPANY, priority 2019, dated 2022)

What was measured:
[1] = molecular target: T1, FXR (Homo sapiens (Human), UniProt Q96RI1); assay: FXR EC50 (FXR agonist potency reported with each Example); assay type: cell-based
[2] = molecular target: T1, FXR; assay: transient human FXR/Gal4-luciferase reporter assay; assay type: cell-based; conditions: Gal4-hFXR fusion construct, HEK293 reporter cells; response relative to 8 μM GW-4064
Summary of the method: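 HEK293 cells stably carrying a 5×Gal4 response element–firefly luciferase reporter were transiently transfected overnight with a Gal4 DBD–human FXR LBD fusion plasmid. Compound was added in DMSO and cells were incubated overnight at 37 °C, 5% CO2. Activity was read as Steady-Glo luminescence.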

T1 sequence (Q96RI1 262-486): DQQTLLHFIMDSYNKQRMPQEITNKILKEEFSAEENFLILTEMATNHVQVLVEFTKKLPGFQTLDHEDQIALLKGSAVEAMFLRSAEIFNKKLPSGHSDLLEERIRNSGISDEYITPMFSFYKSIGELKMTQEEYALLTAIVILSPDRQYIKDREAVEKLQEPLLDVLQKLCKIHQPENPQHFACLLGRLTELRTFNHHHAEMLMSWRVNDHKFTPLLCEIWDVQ

SMILES	EC50 [1] [nM]	EC50 [2] [nM]
CC(C)(O)c1coc(-c2cccc(N(CC34CCC(c5nc(C6CC6)no5)(CC3)CC4)C(=O)C3CC(C(F)F)C3)c2)n1 (stereo not drawn) [Example 17, N-((4-(3-cyclopropyl-1,2,4-oxadiazol-5-yl)bicyclo[2.2.2]octan-1-yl)methyl)-3-(difluoromethyl)-N-(3-(4-(2-hydroxypropan-2-yl)oxazol-2-yl)phenyl)cyclobutane-1-carboxamide]	309	–
O=C(C1CCC1)N(CC12CCC(c3nc(CC4CC4)no3)(CC1)CC2)c1cccc(-c2nc(CC3CC3)no2)c1 [Example 64, N-((4-(3-(cyclopropylmethyl)-1,2,4-oxadiazol-5-yl)bicyclo[2.2.2]octan-1-yl)methyl)-N-(3-(3-(cyclopropylmethyl)-1,2,4-oxadiazol-5-yl)phenyl)cyclobutanecarboxamide]	524	–
O=C(C1CC(C(F)F)C1)N(CC12CCC(c3nc(C4CC4)no3)(CC1)CC2)c1cccc(-c2cnc(C3CC3)o2)c1 (stereo not drawn) [Example 24, N-((4-(3-cyclopropyl-1,2,4-oxadiazol-5-yl)bicyclo[2.2.2]octan-1-yl)methyl)-N-(3-(2-cyclopropyloxazol-5-yl)phenyl)-3-(difluoromethyl)cyclobutane-1-carboxamide]	281	–
CC(C)(C)c1nc(-c2cccc(N(CC34CCC(c5cnc(C(F)(F)F)nc5)(CC3)OC4)C(=O)C34CC(F)(C3)C4)c2)no1 [Example 181, N-(3-(5-(tert-butyl)-1,2,4-oxadiazol-3-yl)phenyl)-3-fluoro-N-((1-(2-(trifluoromethyl)pyrimidin-5-yl)-2-oxabicyclo[2.2.2]octan-4-yl)methyl)bicyclo[1.1.1]pentane-1-carboxamide]	828	–
O=C(N(CC12CCC(c3nc(C4CC4)no3)(CC1)CC2)c1cccc(-c2ccn(C3COC3)n2)c1)C12CC(F)(C1)C2 [Example 149, N-((4-(3-cyclopropyl-1,2,4-oxadiazol-5-yl)bicyclo[2.2.2]octan-1-yl)methyl)-3-fluoro-N-(3-(1-(oxetan-3-yl)-1H-pyrazol-3-yl)phenyl)bicyclo[1.1.1]pentane-1-carboxamide]	111	–
CC(C)(C)c1noc(C23CCC(CN(C(=O)C45CC(F)(C4)C5)c4cccc(-c5noc(C6CC6)n5)c4)(CC2)CC3)n1 [Example 171, N-((4-(3-(tert-butyl)-1,2,4-oxadiazol-5-yl)bicyclo[2.2.2]octan-1-yl)methyl)-N-(3-(5-cyclopropyl-1,2,4-oxadiazol-3-yl)phenyl)-3-fluorobicyclo[1.1.1]pentane-1-carboxamide]	37.6	–
CC(C)(C)c1noc(C23CCC(CN(C(=O)C45CC(F)(C4)C5)c4cccc(-c5nc(C6CC6)no5)c4)(CC2)CC3)n1 [Example 88, N-((4-(3-(tert-butyl)-1,2,4-oxadiazol-5-yl)bicyclo[2.2.2]octan-1-yl)methyl)-N-(3-(3-cyclopropyl-1,2,4-oxadiazol-5-yl)phenyl)-3-fluorobicyclo[1.1.1]pentane-1-carboxamide]	86	–
Cn1nc(C2CC2)cc1C12CCC(CN(C(=O)C34CC(F)(C3)C4)c3cccc(-c4nc(C5CC5)no4)c3)(CC1)CC2 [Example 126, N-(3-(3-cyclopropyl-1,2,4-oxadiazol-5-yl)phenyl)-N-((4-(3-cyclopropyl-1-methyl-1H-pyrazol-5-yl)bicyclo[2.2.2]octan-1-yl)methyl)-3-fluorobicyclo[1.1.1]pentane-1-carboxamide]	87	–
O=C(C1CCC(F)(F)C1)N(CC12CCC(c3nc(C4CC4)no3)(CC1)CC2)c1cccc(-c2nc(CC3CC3)no2)c1 (stereo not drawn) [Example 67, N-((4-(3-cyclopropyl-1,2,4-oxadiazol-5-yl)bicyclo[2.2.2]octan-1-yl)methyl)-N-(3-(3-(cyclopropylmethyl)-1,2,4-oxadiazol-5-yl)phenyl)-3,3-difluorocyclopentane-1-carboxamide]	202	–
O=C(C1CCC1)N(CC12CCC(c3nc(CC4CC4)no3)(CC1)CC2)c1cccc(-c2nc(C3CC3)no2)c1 [Example 71, N-(3-(3-cyclopropyl-1,2,4-oxadiazol-5-yl)phenyl)-N-((4-(3-(cyclopropylmethyl)-1,2,4-oxadiazol-5-yl)bicyclo[2.2.2]octan-1-yl)methyl)cyclobutanecarboxamide]	406	–
O=C(N(CC12CCC(c3nnc(C4CC4)o3)(CC1)CC2)c1cccc(-c2nnc(C3CC3)o2)c1)C12CC(F)(C1)C2 [Example 136, N-((4-(5-cyclopropyl-1,3,4-oxadiazol-2-yl)bicyclo[2.2.2]octan-1-yl)methyl)-N-(3-(5-cyclopropyl-1,3,4-oxadiazol-2-yl)phenyl)-3-fluorobicyclo[1.1.1]pentane-1-carboxamide]	141	–
CCOc1ncc(-c2cccc(N(CC34CCC(c5nc(C6CC6)no5)(CC3)CC4)C(=O)C34CC(F)(C3)C4)c2)o1 [Example 7, N-((4-(3-cyclopropyl-1,2,4-oxadiazol-5-yl)bicyclo[2.2.2]octan-1-yl)methyl)-N-(3-(2-ethoxyoxazol-5-yl)phenyl)-3-fluorobicyclo[1.1.1]pentane-1-carboxamide]	22	–
Cn1nc(C23CCC(CN(C(=O)C45CC(F)(C4)C5)c4cccc(-c5noc(C(C)(C)C)n5)c4)(CC2)CC3)cc1C1CC1 [Example 167, N-(3-(5-(tert-butyl)-1,2,4-oxadiazol-3-yl)phenyl)-N-((4-(5-cyclopropyl-1-methyl-1H-pyrazol-3-yl)bicyclo[2.2.2]octan-1-yl)methyl)-3-fluorobicyclo[1.1.1]pentane-1-carboxamide]	69	–
O=C(C1CCC(F)(F)C1)N(CC12CCC(c3nc(C4CC4)no3)(CC1)CC2)c1cccc(-c2nc(C(F)F)co2)c1 (stereo not drawn) [Example 44, N-((4-(3-cyclopropyl-1,2,4-oxadiazol-5-yl)bicyclo[2.2.2]octan-1-yl)methyl)-N-(3-(4-(difluoromethyl)oxazol-2-yl)phenyl)-3,3-difluorocyclopentane-1-carboxamide]	646	–
Cc1noc(C23CCC(CN(C(=O)C45CC(F)(C4)C5)c4cccc(-c5cnc(C6CCOCC6)o5)c4)(CC2)CC3)n1 [Example 34, 3-Fluoro-N-((4-(3-methyl-1,2,4-oxadiazol-5-yl)bicyclo[2.2.2]octan-1-yl)methyl)-N-(3-(2-(tetrahydro-2H-pyran-4-yl)oxazol-5-yl)phenyl)bicyclo[1.1.1]pentane-1-carboxamide]	1520	–
Cn1nc(-c2cccc(N(CC34CCC(c5nc(C6CC6)no5)(CC3)CC4)C(=O)C3CC(F)(F)C3)c2)cc1C1CC1 [Example 76, N-((4-(3-cyclopropyl-1,2,4-oxadiazol-5-yl)bicyclo[2.2.2]octan-1-yl)methyl)-N-(3-(5-cyclopropyl-1-methyl-1H-pyrazol-3-yl)phenyl)-3,3-difluorocyclobutane-1-carboxamide]	610	–
COc1ccc(C23CCC(CN(C(=O)C45CC(F)(C4)C5)c4cccc(-c5nc(C6CC6)no5)c4)(CC2)CO3)cc1 [Example 128, N-(3-(3-Cyclopropyl-1,2,4-oxadiazol-5-yl)phenyl)-3-fluoro-N-((1-(4-methoxyphenyl)-2-oxabicyclo[2.2.2]octan-4-yl)methyl)bicyclo[1.1.1]pentane-1-carboxamide]	403	–
CC(=O)NC1(c2nc(-c3cccc(N(CC45CCC(c6nc(C7CC7)no6)(CC4)CC5)C(=O)C45CC(F)(C4)C5)c3)no2)CC1 [Example 111, N-(3-(5-(1-acetamidocyclopropyl)-1,2,4-oxadiazol-3-yl)phenyl)-N-((4-(3-cyclopropyl-1,2,4-oxadiazol-5-yl)bicyclo[2.2.2]octan-1-yl)methyl)-3-fluorobicyclo[1.1.1]pentane-1-carboxamide]	120	–
O=C(N(CC12CCC(c3cc(C(F)(F)F)ccn3)(CC1)CC2)c1cccc(-c2nc(C3CC3)no2)c1)C12CC(F)(C1)C2 [Example 50, N-(3-(3-cyclopropyl-1,2,4-oxadiazol-5-yl)phenyl)-3-fluoro-N-((4-(4-(trifluoromethyl)pyridin-2-yl)bicyclo[2.2.2]octan-1-yl)methyl)bicyclo[1.1.1]pentane-1-carboxamide]	462	–
Cc1cnc(C23CCC(CN(C(=O)C45CC(F)(C4)C5)c4cccc(-c5nc(C(F)F)co5)c4)(CC2)CC3)o1 [Example 45, N-(3-(4-(difluoromethyl)oxazol-2-yl)phenyl)-3-fluoro-N-((4-(5-methyloxazol-2-yl)bicyclo[2.2.2]octan-1-yl)methyl)bicyclo[1.1.1]pentane-1-carboxamide]	258	–
O=C(N(CC12CCC(c3nc(C4CC4)no3)(CC1)CC2)c1cccc(-c2csc(CCl)n2)c1)C12CC(F)(C1)C2 [Example 30, N-(3-(2-(chloromethyl)thiazol-4-yl)phenyl)-N-((4-(3-cyclopropyl-1,2,4-oxadiazol-5-yl)bicyclo[2.2.2]octan-1-yl)methyl)-3-fluorobicyclo[1.1.1]pentane-1-carboxamide]	112	–
O=C(C1CCC1)N(CC12CCC(c3nc(C4CC4)no3)(CC1)CC2)c1cccc(-c2cnc(C3CC3)o2)c1 [Example 20, N-((4-(3-cyclopropyl-1,2,4-oxadiazol-5-yl)bicyclo[2.2.2]octan-1-yl)methyl)-N-(3-(2-cyclopropyloxazol-5-yl)phenyl)cyclobutanecarboxamide]	138	–
CC(C)(O)c1coc(-c2cccc(N(CC34CCC(c5nc(C6CC6)no5)(CC3)CC4)C(=O)C3CC(F)(F)C3)c2)n1 [Example 16, N-((4-(3-cyclopropyl-1,2,4-oxadiazol-5-yl)bicyclo[2.2.2]octan-1-yl)methyl)-3,3-difluoro-N-(3-(4-(2-hydroxypropan-2-yl)oxazol-2-yl)phenyl)cyclobutane-1-carboxamide]	318	–
COCc1ccc(-c2cccc(N(CC34CCC(c5nc(C(C)C)no5)(CC3)CC4)C(=O)C34CC(F)(C3)C4)c2)cn1 [Example 391, 3-fluoro-N-((4-(3-isopropyl-1,2,4-oxadiazol-5-yl)bicyclo[2.2.2]octan-1-yl)methyl)-N-(3-(6-(methoxymethyl)pyridin-3-yl)phenyl)bicyclo[1.1.1]pentane-1-carboxamide]	–	147
